Laboratory results published in publication PMC12748266, “Testing antimicrobial peptides inhibiting protein synthesis in living E. coli and K. pneumoniae using bio-orthogonal non-canonical amino-acid tagging” (Frontiers in Microbiology, 2025).
Values after ≈ are worked out from the molar mass of the structure shown. Where two headings read alike, the source gives them in different places. Marks after values point to notes of the source that are not given here.

Tests used:
[1] = test system: E. coli ATCC 25922; assay: Cell membrane permeabilization, propidium iodide flow cytometry; assay type: cell-based, Escherichia coli; details: for Membrane permeabilization (% PI +cells): compound at its MIC, 40 min, 5 × 10^6 CFU/mL, supplemented M9, mean of n = 3
Experimental: (§1) Membrane permeabilization of bacteria was then assessed by incubating bacteria at 37 °C, in a final volume of 1 mL, with varying concentrations of each peptide or antibiotic used for the BONCAT assay. 5 min before the ending of the selected incubation time (40 min), propidium iodide probe was added to the samples to a final concentration of 10 μg/mL before analysis using a flow cytometer. A positive control consisted of E. coli cells dehydrated with ethanol (as described above), while untreated cells were used as negative control. The fluorescence of untreated cells was used to establish the gating for positive PI-stained cells. Fixed bacterial cells, subjected to the click chemistry reaction to link the Alexa Fluor azide 488 probe, were analysed by flow cytometry and, among the gates-selected ones, only those that tested positive for Propidium Iodide, and thus permeabilized, were considered for the calculation of the mean fluorescence intensity (MFI) of the Alexa Fluor azide 488.
(§2) Samples were analyzed by an Attune NxT® (ThermoFisher) equipped with a blue laser (488 nm) and photomultiplier tubes (PMTs) BL1 (525/50) and BL3 (695/40) to collect fluorescence. All parameters were set in logarithmic scale and the signals were recorded as Area. Forward scattering (FSC) was set to 300 mV, side scattering (SSC) to 350 mV and thresholds to 0.2 for FSC and 0.5 for SSC. The compensation matrix was performed according to the tool software. Hierarchical gates and acquisition flow rate (200 μL/min) were set to avoid coincident events. The files were saved as FCS 3.1 and analysed by FCS Express De Novo software v7. Flow cytometry data are presented as means ± SD from three independent experiments (n = 3).

[2] = test system: K. pneumoniae ATCC 700603; assay: as above; assay type: cell-based, Klebsiella pneumoniae; details: compound at its MIC, 40 min, 5 × 10^6 CFU/mL, supplemented M9; mean of n = 3
Experimental: as §1, with “An overnight culture of E. coli ATCC 25922, or of K. pneumoniae ATCC 700603, prepared as described above, was diluted to a final concentration of 5 × 10^6 CFU/mL and allowed to adjust for 30 min at 37 °C under shaking. Membrane” for “Membrane”
as §2

[3] = test system: E. coli ATCC 25922; assay: microbe, parasite or virus in culture; assay type: cell-based, Escherichia coli; details: for MIC: 18 h, 37 °C, mode of at least three experiments
Experimental: […] Each peptide, diluted at a starting concentration of 128 μM in supplemented M9 medium was added to the first column of wells of a 96-well round-bottom microplate (Sarstedt, Milan, Italy). Serially two-fold dilution (1:1) were performed across subsequent wells to a final volume of 50 μL. 50 μL of bacterial suspension (1 × 10^7 CFU/mL) were then added to each well, to a final bacterial concentration in each well to 5 × 10^6 CFU/mL per well. Untreated bacterial culture was used as growth control, while 100 μL of uninoculated supplemented M9 medium was used to verify the sterility of the medium. The plates were sealed with parafilm to minimize evaporation and incubated at 37 °C for 18 h. The minimum inhibitory concentration (MIC) was visually determined as the lowest peptide concentration in a well with no visible bacterial growth. Data are reported as the mode of at least three independent experiments.

[4] = test system: E. coli ATCC 25922; assay: BONCAT: HPG incorporation into newly synthesized proteins, flow cytometry; assay type: cell-based, Escherichia coli; details: compound at MIC; for Fluorescence Intensity (% of Control): 10 min pre-incubation then 30 min HPG, untreated = 100%, mean, n ≥ 3; for Decrease in fluorescence compared to untreated bacteria: 40 min total incubation (10 min + 30 min HPG)
Experimental: (§3) We used a modified protocol from [Lindivat et al. (2020)]. Briefly, overnight cultures of E. coli ATCC 25922 or K. pneumoniae ATCC 700603, prepared as described above, were diluted to a final concentration of 5×10^6 CFU/mL and allowed to adjust for 30 min at 37 °C. The culture was then incubated at 37 °C in the dark for 10 or 30 min in the presence or absence of each peptide or antibiotic at various concentrations, with a final volume of 1 mL. At this point, only in certain specified experimental assays, the compounds were removed from the supernatant by centrifugation (16,000 × g for 5 min) and bacteria were washed and resuspended in fresh supplemented M9 medium. Then, 32 μL of a 500 μM homopropargylglycine (HPG) solution were added to each sample, resulting in a final concentration of 16 μM in a finale volume of 1 mL. Also included in each assay were two untreated controls containing only bacteria and bacteria treated with 16 μM HPG alone, respectively. All samples were then incubated at 37 °C in the dark for 30 min. After incubation, samples were washed once with 1X filtered Phosphate Buffered Saline (PBS) (centrifuged at 16,000 x g for 5 min) and resuspended in PBS. After washing, samples were fixed with formaldehyde (Sigma Aldrich, USA) to a final concentration of 3% in 1 mL for 1 h at 25 °C. Subsequently, the samples were centrifuged at 16,000 x g for 5 min and resuspended in 1 mL of PBS. If not analysed immediately, the fixed samples were stored at 4 °C prior to performing the click chemistry reaction. Samples were centrifugated at 16,000 x g for 5 min and bacteria cells were dehydrated by ethanol that was added sequentially to achieve a final concentration of 50% (v/v) (3 min of incubation), 80% (v/v) (3 min of incubation), and 95% (v/v) (3 min of incubation). After dehydration, the samples were centrifugated (16,000 × g, 5 min) and resuspended in PBS. For cell analysis by SDS-PAGE, the following variations were implemented: bacterial cells were diluted in supplemented M9 medium to a final density of ~ 1 × 10^9 CFU/mL, and HPG was added to the samples at a final concentration of 160 μM. Bacteria were incubated with HPG for 0, 15, 30, 60, or 120 min at 37 °C in the dark.
(§4) The click reaction was carried out according to [Rostovtsev et al. (2002)]. 15 μL of a pre-mix solution (prepared as described above) were added to each sample containing fixed bacteria that had incorporated HPG (30 μL of pre-mix solution in case of samples prepared for SDS-PAGE analysis), resulting in the following final concentrations in each sample: 0.1 mM copper sulfate, 0.5 mM Tris (3-hydroxypropyltriazolylmethyl)amine (THPTA), and 2.5 μM Alexa Fluor azide 488. Additionally, 50 μL of freshly prepared 100 mM sodium ascorbate and 50 μL of 100 mM aminoguanidine were added (100 μL in case of samples prepared for SDS-PAGE analysis), bringing the final volume to 1 mL. The samples were gently inverted once to mix and incubated for 30 min in the dark at 25 °C. Finally, each sample was washed with PBS once (centrifuged at 16,000 × g for 5 min) and resuspended in 1 mL PBS.
An overnight culture of E. coli ATCC 25922, or of K. pneumoniae ATCC 700603, prepared as described above, was diluted to a final concentration of 5 × 10^6 CFU/mL and allowed to adjust for 30 min at 37 °C under shaking. Membrane permeabilization of bacteria was then assessed by incubating bacteria at 37 °C, in a final volume of 1 mL, with varying concentrations of each peptide or antibiotic used for the BONCAT assay. 5 min before the ending of the selected incubation time (40 min), propidium iodide probe was added to the samples to a final concentration of 10 μg/mL before analysis using a flow cytometer. A positive control consisted of E. coli cells dehydrated with ethanol (as described above), while untreated cells were used as negative control. The fluorescence of untreated cells was used to establish the gating for positive PI-stained cells. […]

[5] = test system: E. coli ATCC 25922; assay: Post-antibiotic effect (PAE), growth kinetics after washout; assay type: cell-based, Escherichia coli; details: 30 min treatment at MIC, OD600 every hour for 18 h in MHB, mean ± SD, n = 3
Experimental: An overnight culture of E. coli ATCC 25922, prepared as described above, was diluted to a final concentration of 5 × 10^6 CFU/mL and then incubated at 37 °C for 30 min in the presence or absence of each peptide or antibiotic at various concentrations, with a final volume of 1 mL. To measure the post-antibiotic effect (PAE) of antimicrobials, the compounds were removed from the supernatant by centrifugation (16,000 × g for 5 min) and bacteria were washed and resuspended in 1 mL of fresh supplemented MHB medium, to promote faster growth visible as increased absorbance. 200 μL of each sample was then transferred to a 96-well round-bottom microplate (Sarstedt, Milan, Italy), which was then placed in a Nanoquant Infinite-M200Pro plate reader with stable temperature at 37 °C. Each sample was surrounded by water-filled wells to reduce its own evaporation. Optical density at 600 nm was then recorded for each sample every hour for up to 18 h. PAE was calculated according to [Holfeld et al. (2018)] as the difference between the time needed for a cell culture incubated with an antibiotic substance to reach half-maximum absorbance of the control culture and the time that the control culture needed to reach half-maximum absorbance of the stationary phase. According to this definition, the PAE of each compound (expressed as time) was calculated based on the OD₆₀₀ value of its respective replicate, which corresponded to half of the maximum absorbance reached by the control culture in the stationary phase (at 18 h). The mean PAE values (PAE in hours) of each compound, were obtained by averaging the times from the three independent experiments.

[6] = test system: K. pneumoniae ATCC 700603; assay: microbe, parasite or virus in culture; assay type: cell-based, Klebsiella pneumoniae; details: for MIC: 18 h, 37 °C, mode of at least three experiments
Experimental: […] […] Serially two-fold dilution (1:1) were performed across subsequent wells to a final volume of 50 μL. […] […] The plates were sealed with parafilm to minimize evaporation and incubated at 37 °C for 18 h. The minimum inhibitory concentration (MIC) was visually determined as the lowest peptide concentration in a well with no visible bacterial growth. Data are reported as the mode of at least three independent experiments.

[7] = test system: K. pneumoniae ATCC 700603; assay: BONCAT: HPG incorporation into newly synthesized proteins, flow cytometry; assay type: cell-based, Klebsiella pneumoniae; details: compound at MIC, 10 min pre-incubation then 30 min HPG; untreated = 100%; mean, n ≥ 3
Experimental: as §3
as §4, with “Finally, each sample was washed with PBS once (centrifuged at 16,000 × g for 5 min) and resuspended in 1 mL PBS.” left out
An overnight culture of E. coli ATCC 25922, or of K. pneumoniae ATCC 700603, prepared as described above, was diluted to a final concentration of 5 × 10^6 CFU/mL and allowed to adjust for 30 min at 37 °C under shaking. Membrane permeabilization of bacteria was then assessed by incubating bacteria at 37 °C, in a final volume of 1 mL, with varying concentrations of each peptide or antibiotic used for the BONCAT assay. […] The fluorescence of untreated cells was used to establish the gating for positive PI-stained cells. […]

[8] = Mueller Hinton, 2,5x10^5 CFU/mL

In the case of `CCO` [Ethanol], the “Membrane permeabilization (% PI +cells)” value [1] is reported as 78%, the “Membrane permeabilization (% PI +cells)” value ([1]; listed as EtOH) is reported as 78% and the “Membrane permeabilization (% PI +cells)” value [2] is reported as 96%.
`CCn1cc(C(=O)O)c(=O)c2ccc(C)nc21` [NDX, Nalidixic Acid] was tested, and the MIC ([3]; Escherichia coli, ATCC25922, 18 h, supplemented M9 medium, 5 × 10^6 CFU/mL, visual, read-out: MIC) was 16 µM (≈ 3.72 µg/mL), the “Membrane permeabilization (% PI +cells)” value [1] was <1% and the “Fluorescence Intensity (% of Control)” value [4] was 107 % of Control. The “Decrease in fluorescence compared to untreated bacteria” value [4] was “did not affect fluorescence intensity” and the PAE [5] was 0.8 ± 0.4 h.
`CN(C)[C@@H]1C(O)=C(C(N)=O)C(=O)[C@@]2(O)C(O)=C3C(=O)c4c(O)cccc4[C@@](C)(O)[C@H]3C[C@@H]12` [TET, tetracycline] was tested, and the MIC ([6]; Klebsiella pneumoniae, ATCC700603, supplemented M9 medium, 5 × 10^6 CFU/mL, visual) was 32 µM (≈ 14.2 µg/mL), the “Membrane permeabilization (% PI +cells)” value [2] was <1% and the “Fluorescence Intensity (% of Control)” value [7] was 37 % of Control.
In the case of Colistin, the “Fold increase in MIC on 20-fold increase in cell density” value ([3]; MHB, 5×10^6 vs 2,5×10^5 CFU/well) is reported as 4-8 fold, the MIC [3, 8] is reported as 0,5 * µM and the MIC ([3]; Mueller Hinton, 5x10^6 CFU/mL, read-out: MIC) is reported as 4 µM. The “Fold increase in MIC in M9 medium compared to MHB” value ([3]; same bacterial concentration) was 2-4 fold, the MIC ([3]; supplemented M9 medium, 5 × 10^6 CFU/mL, visual, read-out: MIC) was 16 µM and the MIC [6, 8] was 1 µM. The “Fold increase in MIC, BONCAT conditions vs standard conditions” value ([6]; supplemented M9 5×10^6 CFU/well vs MHB 2,5×10^5 CFU/well) was 16 fold, the MIC ([6]; supplemented M9 medium, 5 × 10^6 CFU/mL, visual) was 16 µM and the “Permeabilized cells (PI+)” value ([1]; colistin 0,5 µM (MIC) at 2,5x10^5 CFU/mL, 40 minutes of incubation) was “around 50%”. The “Membrane permeabilization (% PI +cells)” value [1] was 1%, the “Membrane permeabilization (% PI +cells)” value ([1]; listed as Colistin) was 1% and the “Membrane permeabilization (% PI +cells)” value ([1]; listed as colistin) was “no membrane permeabilization”. For the same compound, the “Fluorescence Intensity (% of Control)” value [4] was 87 % of Control and the “Decrease in fluorescence compared to untreated bacteria” value [4] was “nor decreased bacterial fluorescence”.
